Legend:
[1] = Water solubility of salts; type: physicochemical; settings: compared to the salts of monocyclic amines (7m and 7s)
[2] = test system: MCF-7 and MDA-MB-231 cells; test: Flow cytometry after prolonged treatment; type: cell-based, human; settings: greater than 48 h
[3] = test system: PARP cleavage in MCF-7 and MDA-MB-231 cells; test: PARP cleavage, Western blot; type: cell-based, human; settings: 24 h, 1 μM
CDK4 = settings: read-out: IC50 CDK4; cited from earlier work
CDK6 = settings: read-out: IC50 CDK6; cited from earlier work
human tumor cell lines = test: Growth arrest of a panel of human tumor cell lines; type: cell-based; settings: read-out: GI50 values, growth arrest of most tumor cell lines
tumor cells = test: Induction of apoptosis of tumor cells; type: cell-based
CDKs 1, 2, 5, 8 and 9 = test: In vitro kinase assay, other CDKs; type: biochemical; settings: data not shown
[4] = test system: AKT phosphorylation in MDA-MB-231 cells; test: AKT phosphorylation; type: cell-based, human; settings: MDA-MB-231, increasing concentrations, 24 h
CD-1 female mice = settings: CD-1, mouse, in vivo
[5] = test system: MDA-MB-231 tumor xenograft; test: Orthotopic nude mouse assay; type: in vivo

N#Cc1cc2cnc(Nc3ccc(N4CCOCC4)cn3)nc2n(C2CCCC2)c1=O [7u, 8-Cyclopentyl-2-(5-morpholin-4-yl-pyridin-2-ylamino)-7-oxo-7,8-dihydro-pyrido[2,3-d] pyrimidine-6-carbonitrile]
water solubility of salts [1]: enhanced water solubility

N#Cc1cc2cnc(Nc3ccc(N4CCOCC4)cc3)nc2n(C2CCCC2)c1=O [7t, 8-Cyclopentyl-2-(4-morpholin-4-yl-phenylamino)-7-oxo-7,8-dihydro-pyrido[2,3-d]pyrimidine-6-carbonitrile]
water solubility of salts [1]: enhanced water solubility

CN1CCN(c2ccc(Nc3ncc4cc(C#N)c(=O)n(C5CCCC5)c4n3)nc2)CC1 [7v, 8-Cyclopentyl-2-[5-(4-methyl-piperazin-1-yl)-pyridin-2-ylamino]-7-oxo-7,8-dihydro-pyrido[2,3-d]pyrimidine-6-carbonitrile]
water solubility of salts [1]: enhanced water solubility

CC(=O)c1c(C)c2cnc(Nc3ccc(N4CCNCC4)cn3)nc2n(C2CCCC2)c1=O [PD-0332991, Palbociclib, reference compound]
sub-G1 population (apoptosis) [2]: absent
PARP cleavage (~89 kDa cleaved polypeptide) [3]: not observed
IC50 (CDK6): 15 nM

N#Cc1cc2cnc(N3CCN(c4ccc(C(F)(F)F)cn4)CC3)nc2n(C2CCCC2)c1=O [7w, 8-Cyclopentyl-7-oxo-2-[4-(5-trifluoromethyl-pyridin-2-yl)-piperazin-1-yl]-7,8-dihydro-pyrido[2,3-d]pyrimidine-6-carbonitrile]
water solubility of salts [1]: enhanced water solubility

CN1CCN(c2ccc(Nc3ncc4cc(C#N)c(=O)n(C5CCCC5)c4n3)cc2)CC1 [7x, 8-Cyclopentyl-2-[4-(4-methyl-piperazin-1-yl)-phenylamino]-7-oxo-7,8-dihydro-pyrido[2,3-d]pyrimidine-6-carbonitrile]
GI50 (human tumor cell lines): 25 to 2000 nM
concentration inducing apoptosis of tumor cells (tumor cells): 30 to 100 nM
inhibitory activity against CDKs 1, 2, 5, 8 and 9 (CDKs 1, 2, 5, 8 and 9): little inhibitory activity
sub-G1 population (apoptosis) [2]: appearance of a sub-G1 population
PARP cleavage (~89 kDa cleaved polypeptide) [3]: dose-dependent accumulation of the ~89 kDa cleaved PARP polypeptide
phosphorylation of AKT (Ser473) [4]: inhibits the phosphorylation of AKT
mice surviving more than 10 days after injection (CD-1 female mice): 100%
tumor growth ([5]; 50 mg/kg Q2D IP, 21 day period): dose-dependent inhibition of tumor growth
signs of toxicity in treated groups ([5]; 50 mg/kg Q2D IP, body weights): No overt signs of toxicity
tumor weight at the end-point of the study ([5]; data not shown): decrease in tumor weight

From publication PMC3983396 (Journal of medicinal chemistry, 2014)
